Measured values as given in US12630544B2, “Compound, α-synuclein aggregate binder, and use thereof” (NATIONAL INSTITUTES FOR QUANTUM SCIENCE AND TECHNOLOGY, priority 2020, dated 2026).

Key:
[1] = target: T1, phosphorylated α-synuclein (Mus musculus, UniProt O55042); experiment: In vitro fluorescence microscope measurement, brain sections of α-synuclein fibril-inoculated mouse; settings: 30 μM compound, 20% ethanol, 30 minutes; mouse brain section
T1 construct: from tissue; host or cells: brain of C57/BL/6 mouse inoculated in the striatum with recombinant (E. coli) mouse α-synuclein fibrils; sections or living animal
Method: First, mouse α-synuclein was expressed in and extracted from E. coli as a recombinant protein, and then incubated in vitro to form insoluble α-synuclein aggregates. The α-synuclein aggregates were then inoculated into the striatum of a mouse. […] Note that the inoculation of the α-synuclein aggregates into the striatum of the mouse was carried out in the following manner. First, hair on the head of a 9-week-old C57/BL/6 male mouse which had been anesthetized with 1.5% (v/v) isoflurane was removed, and the scalp was disinfected with isodine, followed by application of xylocaine and incision in the scalp to expose the skull. […]
The brain of this α-synuclein fibril-inoculated mouse was extracted, and then sections were prepared. The sections were analyzed by fluorescent staining. […] After the section was mounted in a mounting medium (VECTASHIELD H-1000), an image of an α-synuclein aggregate-enriched area on the section was obtained with use of a fluorescence microscope (DM4000 (excitation wavelength: 391 nm to 437 nm)). […] After the section was subjected to immunohistochemical staining with use of an anti-phosphorylated α-synuclein monoclonal antibody (pS129, abcam, ab59264) (1:1000) and then mounted in a mounting medium (VECTASHIELD H-1000), an image of the same area as above was obtained with use of a fluorescence microscope (DM4000 (excitation wavelength: 460 nm to 500 nm)). […]

α-synuclein aggregates = α-synuclein aggregates (Homo sapiens, UniProt P37840); experiment: In vitro fluorescence microscope measurement, amygdala sections of DLB patient brain; set-up: α-synuclein aggregates formed in the brain of the DLB patient; from tissue; host or cells: post-mortem human brain: amygdala of DLB patient (sections or homogenate); cerebellum of MSA patient; settings: 30 μM test compound
Excerpt: Postmortem human brains were obtained in autopsies carried out with respect to a patient with dementia with Lewy bodies (DLB) and a patient with Alzheimer's disease (AD). In a cryostat (HM560, Carl Zeiss), frozen tissue from the DLB patient was sliced into sections each having a thickness of 20 μm. Brain tissue from the AD patient was fixed in 10% neutral buffered formalin, embedded in a paraffin block, and sliced into sections each having a thickness of 6 μm.
Postfixed fresh frozen sections of amygdala tissue obtained from the brain of the DLB patient and deparaffinized sections of formalin-fixed paraffin-embedded middle frontal gyrus tissue obtained from the brain of the AD patient were used. Each brain section and a 30 μM test compound were incubated in a 50% ethanol solution at room temperature for 30 minutes. Thereafter, the section was washed with a 50% ethanol solution for 5 minutes and with ultrapure water for 3 minutes. This washing was carried out twice. After the section was mounted in a mounting medium (VECTASHIELD H-1000, Vector Laboratories), an image of a lesion-enriched area on the section was obtained with use of a fluorescence microscope (DM4000, Leica, excitation wavelength: 391 nm to 437 nm). In FIG. 1, each arrowhead indicates fluorescence from the compound binding to α-synuclein aggregates in the brain of the DLB patient, each arrow indicates fluorescence from the compound binding to amyloid-β aggregates in the brain of the AD patient, and an asterisk indicates fluorescence from the compound binding to tau aggregates in the brain of the AD patient. The fluorescence intensities of lesion-enriched areas and lesion-free areas (background) were quantified with use of analysis software (Image J). Note that SPAL-T-05 and SPAL-T-06 were each used as the test compound. Note also that BF-227 (2-(2-[2-dimethylaminothiazol-5-yl]ethenyl)-6-(2-[fluoro]ethoxy)benzoxazole (catalog No.: NP039-0)) and PBB3 (2-((1E,3E)-4-(6-(methylamino)pyridin-3-yl)buta-1,3-dienyl)benzo[d]thiazol-6-ol) (catalog No.: NP039-0), each available from NARD INSTITUTE, LTD., were each used as a control compound.

binding to α-synuclein aggregates formed in the brain of the DLB patient (fluorescence) (α-synuclein aggregates; 50% ethanol, room temperature, 30 minutes, amygdala sections): reactivity greater than that of PBB3
Compound: CNc1cnc(C#C/C=C/c2nc3ccc(OCC(O)CF)cc3s2)cn1 (stereo not drawn) [SPAL-T-06, (E)-1-fluoro-3-((2-(4-(5-(methylamino)pyrazin-2-yl)but-1-en-3-yn-1-yl)benzo[d]thiazol-6-yl)oxy)propan-2-ol]
binding to lesion caused by phosphorylated α-synuclein (fluorescent staining, co-stained with pS129 antibody) [1]: bound to a lesion caused by phosphorylated α-synuclein | binding selectivity: α-synuclein aggregates (DLB brain) versus tau aggregates or amyloid-β aggregates (AD brain) (α-synuclein aggregates; fluorescence of lesion-enriched vs lesion-free areas): greater than binding of each of SPAL-T-06 and SPAL-T-05 to tau aggregates or amyloid-β aggregates
